Experiments:
human Nav1.8 = human Nav1.8 (Homo sapiens (Human), UniProt Q9Y5Y9); experiment: E-VIPR optical membrane potential assay with electrical stimulation; type: cell-based; details: HEK cells expressing human Nav1.8
From the text: E-VIPR Optical Membrane Potential Assay Method with Electrical Stimulation
Sodium channels are voltage-dependent proteins that can be activated by inducing membrane voltage changes by applying electric fields. The electrical stimulation instrument and methods of use are described in Ion Channel Assay Methods PCT/US01/21652, herein incorporated by reference and are referred to as E-VIPR. The instrument comprises a microtiter plate handler, an optical system for exciting the coumarin dye while simultaneously recording the coumarin and oxonol emissions, a waveform generator, a current- or voltage-controlled amplifier, and a device for inserting electrodes in well. Under integrated computer control, this instrument passes user-programmed electrical stimulus protocols to cells within the wells of the microtiter plate.
24 hours before the assay on E-VIPR, HEK cells expressing human Nav1.8 were seeded in 384-well poly-lysine coated plates at 15,000-20,000 cells per well. HEK cells were grown in media (exact composition is specific to each cell type and NaV subtype) supplemented with 10% FBS (Fetal Bovine Serum, qualified; GibcoBRL #16140-071) and 1% Pen-Strep (Penicillin-Streptomycin; GibcoBRL #15140-122). Cells were grown in vented cap flasks, in 90% humidity and 5% CO2.
• 100 mg/mL Pluronic F-127 (Sigma #P2443), in dry DMSO • Compound Plates: 384-well round bottom plate, e.g. Corning 384-well Polypropylene Round Bottom #3656 • Cell Plates: 384-well tissue culture treated plate, e.g. Greiner #781091-1B • 10 mM DiSBAC6(3) (Aurora #00-100-010) in dry DMSO • 10 mM CC2-DMPE (Aurora #00-100-008) in dry DMSO • 200 mM ABSC1 in H20
Bath1 buffer: Glucose 10 mM (1.8 g/L), Magnesium Chloride (Anhydrous), 1 mM (0.095 g/L), Calcium Chloride, 2 mM (0.222 g/L), HEPES 10 mM (2.38 g/L), Potassium Chloride, 4.5 mM (0.335 g/L), Sodium Chloride 160 mM (9.35 g/L).
Hexyl Dye Solution: Bath1 Buffer+0.5% β-cyclodextrin (make this prior to use, Sigma #C4767), 8 μM CC2-DMPE+2.5 μM DiSBAC6(3). To make the solution Added volume of 10% Pluronic F127 stock equal to volumes of CC2-DMPE+DiSBAC6(3). The order of preparation was first mix Pluronic and CC2-DMPE, then added DiSBAC6(3) while vortexing, then added Bath1+β-Cyclodextrin.
1) Pre-spotted compounds (in neat DMSO) into compound plates. Vehicle control (neat DMSO), the positive control (20 mM DMSO stock tetracaine, 125 μM final in assay) and test compounds were added to each well at 160× desired final concentration in neat DMSO. Final compound plate volume was 80 μL (80-fold intermediate dilution from 1 μL DMSO spot; 160-fold final dilution after transfer to cell plate). Final DMSO concentration for all wells in assay was 0.625%.
2) Prepared Hexyl Dye Solution.
3) Prepared cell plates. On the day of the assay, medium was aspirated and cells were washed three times with 100 μL of Bath1 Solution, maintaining 25 μL residual volume in each well.
4) Dispensed 25 μL per well of Hexyl Dye Solution into cell plates. Incubated for 20-35 minutes at room temp or ambient conditions.
5) Dispensed 80 μL per well of Bath1 into compound plates. Acid Yellow-17 (1 mM) was added and Potassium Chloride was altered from 4.5 to 20 mM depending on the NaV subtype and assay sensitivity.
6) Washed cell plates three times with 100 μL per well of Bath1, leaving 25 μL of residual volume. Then transferred 25 uL per well from Compound Plates to Cell Plates. Incubated for 20-35 minutes at room temp/ambient condition.
7) Read Plate on E-VIPR. Used the current-controlled amplifier to deliver stimulation wave pulses for 10 seconds and a scan rate of 200 Hz. A pre-stimulus recording was performed for 0.5 seconds to obtain the un-stimulated intensities baseline. The stimulatory waveform was followed by 0.5 seconds of post-stimulation recording to examine the relaxation to the resting state.
Data was analyzed and reported as normalized ratios of emission intensities measured in the 460 nm and 580 nm channels. […]

[1] = Human liver microsome assay; type: in vitro ADME; details: 1 uM substrate, 0.5 mg/mL liver microsome, 2 mM NADPH, 37° C., referenced against time zero control
Experimental: Human Liver Microsome Assay Protocol
Liver microsomal stability data were generated as follows. Substrates were incubated at 37° C. and shaken for 30 minutes in a phosphate buffered solution with human liver microsomes and the cofactor NADPH. A time zero control was similarly prepared, however with NADPH excluded. The final incubation concentrations were 1 uM substrate (0.2% DMSO), 0.5 mg/mL liver microsome, 2 mM NADPH, and 0.1 M phosphate. Reactions were quenched and proteins precipitated with the addition of 2 volume equivalents of ice cold acetonitrile containing an internal standard. Following a centrifugation step, aliquots from the quenched incubations were further diluted with 4 volume equivalents of a 50% aqueous methanol solution and then subjected to LC/MS/MS analysis for quantitation of parent substrate. Microsome stability values were calculated as the percent of substrate remaining after 30 minutes referenced against the time zero control.

human Nav1.8, sequence (Q9Y5Y9 whole entry): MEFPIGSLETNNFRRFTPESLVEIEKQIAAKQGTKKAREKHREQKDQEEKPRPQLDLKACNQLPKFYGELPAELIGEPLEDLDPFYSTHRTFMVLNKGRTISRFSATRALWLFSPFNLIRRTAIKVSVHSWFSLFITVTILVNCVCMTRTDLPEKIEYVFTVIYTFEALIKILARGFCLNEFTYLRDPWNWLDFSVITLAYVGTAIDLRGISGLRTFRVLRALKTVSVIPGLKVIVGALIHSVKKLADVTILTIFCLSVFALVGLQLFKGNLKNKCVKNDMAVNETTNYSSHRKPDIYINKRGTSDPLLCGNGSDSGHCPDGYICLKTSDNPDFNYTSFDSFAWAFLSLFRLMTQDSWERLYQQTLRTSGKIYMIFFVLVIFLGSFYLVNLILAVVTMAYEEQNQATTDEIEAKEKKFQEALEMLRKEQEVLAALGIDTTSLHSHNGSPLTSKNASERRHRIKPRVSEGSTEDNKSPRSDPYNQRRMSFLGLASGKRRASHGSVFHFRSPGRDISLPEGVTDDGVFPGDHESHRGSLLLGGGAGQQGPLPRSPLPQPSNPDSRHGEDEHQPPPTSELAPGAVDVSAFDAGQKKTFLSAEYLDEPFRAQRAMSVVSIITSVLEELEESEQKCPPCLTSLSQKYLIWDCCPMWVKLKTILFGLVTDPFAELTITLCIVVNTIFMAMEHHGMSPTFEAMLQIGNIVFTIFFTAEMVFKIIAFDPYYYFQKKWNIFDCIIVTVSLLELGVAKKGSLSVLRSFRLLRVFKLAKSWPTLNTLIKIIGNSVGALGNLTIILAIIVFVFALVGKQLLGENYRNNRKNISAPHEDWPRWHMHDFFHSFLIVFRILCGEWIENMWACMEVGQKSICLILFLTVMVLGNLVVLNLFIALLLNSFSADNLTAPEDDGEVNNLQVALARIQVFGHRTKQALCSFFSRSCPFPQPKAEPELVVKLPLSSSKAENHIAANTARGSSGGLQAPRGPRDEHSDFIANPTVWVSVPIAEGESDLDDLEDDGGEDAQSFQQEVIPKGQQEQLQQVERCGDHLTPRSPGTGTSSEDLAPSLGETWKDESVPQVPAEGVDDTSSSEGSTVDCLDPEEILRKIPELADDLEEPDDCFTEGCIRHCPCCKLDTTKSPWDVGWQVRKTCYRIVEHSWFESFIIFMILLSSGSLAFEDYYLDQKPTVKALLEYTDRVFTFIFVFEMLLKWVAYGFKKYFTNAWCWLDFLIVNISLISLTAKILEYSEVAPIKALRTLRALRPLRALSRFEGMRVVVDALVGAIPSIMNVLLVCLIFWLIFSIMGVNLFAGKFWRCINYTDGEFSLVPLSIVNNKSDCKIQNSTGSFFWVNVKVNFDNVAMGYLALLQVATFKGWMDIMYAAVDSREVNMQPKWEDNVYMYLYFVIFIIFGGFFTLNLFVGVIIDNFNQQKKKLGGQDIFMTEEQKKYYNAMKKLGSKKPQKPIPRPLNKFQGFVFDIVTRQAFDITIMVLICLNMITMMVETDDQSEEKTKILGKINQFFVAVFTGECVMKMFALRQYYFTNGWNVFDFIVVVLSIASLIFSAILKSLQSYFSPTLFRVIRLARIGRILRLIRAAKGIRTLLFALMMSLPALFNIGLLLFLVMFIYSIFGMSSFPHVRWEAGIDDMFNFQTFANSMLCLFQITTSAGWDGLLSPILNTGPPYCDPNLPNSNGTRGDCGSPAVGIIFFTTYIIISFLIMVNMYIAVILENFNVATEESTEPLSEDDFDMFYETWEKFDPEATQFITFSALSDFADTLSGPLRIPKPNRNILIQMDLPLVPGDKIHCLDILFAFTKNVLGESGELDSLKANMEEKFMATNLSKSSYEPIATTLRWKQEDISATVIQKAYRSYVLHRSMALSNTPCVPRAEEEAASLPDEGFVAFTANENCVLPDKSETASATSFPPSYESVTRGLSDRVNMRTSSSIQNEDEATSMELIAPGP

SMILES	IC50 (human Nav1.8)	HLM: percent unchanged after 30 min [1]
COc1ccc(Oc2ccc(C(F)(F)F)cc2C(=O)Nc2cccc(S(N)(=O)=O)c2)cc1 [Compound 22, 2-(4-methoxyphenoxy)-N-(3-sulfamoylphenyl)-5-(trifluoromethyl)benzamide]	28 nM	88%
CCOc1ccc(Oc2ccc(C(F)(F)F)cc2C(=O)Nc2cccc(S(N)(=O)=O)c2)cc1 [Compound 23, 2-(4-ethoxyphenoxy)-N-(3-sulfamoylphenyl)-5-(trifluoromethyl)benzamide]	14 nM	75%
NS(=O)(=O)c1cccc(NC(=O)c2cc(C(F)(F)F)ccc2Oc2ccc(Cl)cc2)c1 [Compound 24, 2-(4-chlorophenoxy)-N-(3-sulfamoylphenyl)-5-(trifluoromethyl)benzamide]	30 nM	102%
Cc1cc(F)ccc1Oc1ccc(C(F)(F)F)cc1C(=O)Nc1cccc(S(N)(=O)=O)c1 [Compound 25, 2-(4-fluoro-2-methylphenoxy)-N-(3-sulfamoylphenyl)-5-(trifluoromethyl)benzamide]	4 nM	94%
NS(=O)(=O)c1cccc(NC(=O)c2cc(C(F)(F)F)ccc2Oc2ccc(F)cc2Cl)c1 [Compound 26, 2-(2-chloro-4-fluorophenoxy)-N-(3-sulfamoylphenyl)-5-(trifluoromethyl)benzamide]	4 nM	119%
COc1cc(F)ccc1Oc1ccc(C(F)(F)F)cc1C(=O)Nc1cccc(S(N)(=O)=O)c1 [Compound 27, 2-(4-fluoro-2-methoxyphenoxy)-N-(3-sulfamoylphenyl)-5-(trifluoromethyl)benzamide]	6 nM	101%
COc1ccc(Oc2ccc(C(F)(F)F)cc2C(=O)Nc2cccc(S(N)(=O)=O)c2)cc1F [Compound 28, 2-(3-fluoro-4-methoxyphenoxy)-N-(3-sulfamoylphenyl)-5-(trifluoromethyl)benzamide]	16 nM	92%
COc1c(F)cccc1Oc1ccc(C(F)(F)F)cc1C(=O)Nc1cccc(S(N)(=O)=O)c1 [Compound 29, 2-(3-fluoro-2-methoxyphenoxy)-N-(3-sulfamoylphenyl)-5-(trifluoromethyl)benzamide]	5 nM	100%
Cc1cc(Cl)ccc1Oc1ccc(C(F)(F)F)cc1C(=O)Nc1cccc(S(N)(=O)=O)c1 [Compound 30, 2-(4-chloro-2-methylphenoxy)-N-(3-sulfamoylphenyl)-5-(trifluoromethyl)benzamide]	9 nM	103%
COc1ccc(Oc2ccc(C(F)(F)F)cc2C(=O)Nc2cccc(S(N)(=O)=O)c2)c(Cl)c1 [Compound 31, 2-(2-chloro-4-methoxyphenoxy)-N-(3-sulfamoylphenyl)-5-(trifluoromethyl)benzamide]	6 nM	82%
Cc1ccccc1Oc1ccc(C(F)(F)F)cc1C(=O)Nc1cccc(S(N)(=O)=O)c1 [Compound 32, N-(3-sulfamoylphenyl)-2-(o-tolyloxy)-5-(trifluoromethyl)benzamide]	8 nM	76%
NS(=O)(=O)c1cccc(NC(=O)c2c(Oc3ccc(F)cc3Cl)cccc2C(F)(F)F)c1 [Compound 33, 2-(2-chloro-4-fluorophenoxy)-N-(3-sulfamoylphenyl)-6-(trifluoromethyl)benzamide]	5 nM	102%
COc1ccccc1Oc1ccc(C(F)(F)F)cc1C(=O)Nc1cccc(S(N)(=O)=O)c1 [Compound 34, 2-(2-methoxyphenoxy)-N-(3-sulfamoylphenyl)-5-(trifluoromethyl)benzamide]	14 nM	96%
COc1cc(Cl)ccc1Oc1ccc(C(F)(F)F)cc1C(=O)Nc1cccc(S(N)(=O)=O)c1 [Compound 35, 2-(4-chloro-2-methoxyphenoxy)-N-(3-sulfamoylphenyl)-5-(trifluoromethyl)benzamide]	5 nM	82%
COc1ccc(Oc2ccc(C(F)(F)F)cc2C(=O)Nc2cccc(S(N)(=O)=O)c2)c(OC)c1 [Compound 36, 2-(2,4-dimethoxyphenoxy)-N-(3-sulfamoylphenyl)-5-(trifluoromethyl)benzamide]	4 nM	66%
CC(C)Oc1ccc(Oc2ccc(C(F)(F)F)cc2C(=O)Nc2cccc(S(N)(=O)=O)c2)cc1 [Compound 37, 2-(4-isopropoxyphenoxy)-N-(3-sulfamoylphenyl)-5-(trifluoromethyl)benzamide]	6 nM	76%
Cc1cccc(Oc2ccc(F)cc2Cl)c1C(=O)Nc1cccc(S(N)(=O)=O)c1 [Compound 38, 2-(2-chloro-4-fluorophenoxy)-6-methyl-N-(3-sulfamoylphenyl)benzamide]	14 nM	105%
NS(=O)(=O)c1cccc(NC(=O)c2cc(C(F)(F)F)ccc2Oc2ccc(OC(F)(F)F)cc2)c1 [Compound 39, N-(3-sulfamoylphenyl)-2-(4-(trifluoromethoxy)phenoxy)-5-(trifluoromethyl)benzamide]	10 nM	104%
NS(=O)(=O)c1cccc(NC(=O)c2cc(C(F)F)ccc2Oc2ccc(F)cc2Cl)c1 [Compound 40, 2-(2-chloro-4-fluorophenoxy)-5-(difluoromethyl)-N-(3-sulfamoylphenyl)benzamide]	7 nM	107%
NS(=O)(=O)c1cccc(NC(=O)c2cc(C(F)(F)F)ccc2Oc2ccc(OC(F)F)cc2)c1 [Compound 41, 2-(4-(difluoromethoxy)phenoxy)-N-(3-sulfamoylphenyl)-5-(trifluoromethyl)benzamide]	22 nM	95%
COc1cc(Cl)ccc1Oc1cc(C(F)(F)F)ccc1C(=O)Nc1cccc(S(N)(=O)=O)c1 [Compound 42, 2-(4-chloro-2-methoxyphenoxy)-N-(3-sulfamoylphenyl)-4-(trifluoromethyl)benzamide]	10 nM	84%
COc1ccc(Oc2cc(C(F)(F)F)ccc2C(=O)Nc2cccc(S(N)(=O)=O)c2)cc1F [Compound 43, 2-(3-fluoro-4-methoxyphenoxy)-N-(3-sulfamoylphenyl)-4-(trifluoromethyl)benzamide]	21 nM	90%
COc1ccccc1Oc1cc(C(F)(F)F)ccc1C(=O)Nc1cccc(S(N)(=O)=O)c1 [Compound 44, 2-(2-methoxyphenoxy)-N-(3-sulfamoylphenyl)-4-(trifluoromethyl)benzamide]	20 nM	79%
